Data: patent US20200297820A1, “STIMULATION OF HUMAN MEIBOMIAN GLAND FUNCTION” (The Schepens Eye Research Institute, Inc., priority 2013, published 2020)

Legend:
[1] = tested on: immortalized human meibomian gland epithelial cells; assay: LipidTOX green neutral lipid staining (lipid accumulation); assay type: cell-based; conditions: for lipid accumulation: 10^−8 M
Description: (§1) As an example of these experiments, immortalized human meibomian gland epithelial cells were cultured in the presence or absence of 10% fetal bovine serum. Cells were treated with an ethanol vehicle or azithromycin (10 μg/ml; Santa Cruz Biotechnology) for varying time periods. Cellular morphological appearance was recorded, cells were counted with a hemocytometer, and lipid accumulation was assessed by staining the cells with LipidTOX green neutral lipid stain (Invitrogen, Grand Island, N.Y.), according to reported methods. Staining fluorescent intensities were quantified by using ImageJ (http://rsbweb.nih.gov/ij/index.html). Statistical analyses were performed with Student's t-test (two-tailed, unpaired).
(§2) Immortalized human meibomian gland epithelial cells (IHMGECs; passages 20-22) were cultured in the presence or absence of 10% fetal bovine serum. Cells were treated with the ethanol vehicle or azithromycin (10 μg/mL) for varying periods. Cellular morphological appearance was recorded, cells were counted with a hemocytometer, and lipid accumulation was assessed by staining cells with LipidTOX green neutral lipid stain (Invitrogen Corp). Staining fluorescent intensities were quantified using ImageJ software (http://rsbweb.nih.gov/ij/index.html). Statistical analyses were performed with t test (2-tailed, unpaired).
Cell numbers were enumerated with a hemocytometer. Cellular lipid and lysosome accumulation were examined by staining cells with: Filipin III (a fluorometric probe for identifying unesterified cholesterol), LipidTOX green neutral lipid stain, and LysoTracker® Red DND-99 (a fluorescent technique designed for labeling acidic organelles such as lysosomes). Lysosomal lamellar bodies were identified by transmission electron microscopy. In brief, after culture and treatment on 24 mm polycarbonate membrane transwell inserts (0.4 μm pore size), cells were fixed in a solution of 2% formaldehyde+2.5% glutaraldehyde, in 0.08 M sodium cacodylate buffer, pH 7.4, post-fixed with 2% osmium tetroxide in 0.1 M sodium cacodylate buffer, and stained en bloc with 2% aqueousuranyl acetate. […] Cross sections (1 μM) were stained with 1% toluidine blue in 1% sodium tetraborate solution. Ultra-thin sections (60-90 nm) were imaged with a transmission electron microscope interfaced with a digital CCD camera. For biochemical assessments, cellular lipids were extracted with chloroform and methanol from samples with the same amount of protein. Lipids were then evaluated with high-performance thin-layer chromatography. With regard to the staining results, three Filipin, five LipidTox and four LysoTracker studies were conducted, and each experiment was performed in duplicate. Four random pictures were taken of each group, and four random areas were selected for the measurement of fluorescent intensities. The HPTLC experiments were performed in duplicate more than three times. Image data were quantified with ImageJ (http://rsbweb.nib.gov/ij/index.html). Electron microscopic analyses were performed in triplicate.
The experiment included green neutral lipid staining. Immortalized human meibomian gland epithelial cells were cultured in slides treated to facilitate cell growth in FBS-containing medium in the presence or absence of IGF-1, anti-IGF-1R, and/or GH. Media were replaced every 2 to 3 days for a total of 6 days, at which time cells were washed and fixed in 4% paraformaldehyde for 30 minutes. After additional washes, cells were stained with green neutral lipid stain in a humid chamber for 30 minutes. Coverslips were mounted on slides with an antifade reagent that contains 4′,6-diamidino-2-phenylindole nuclear stain and permitted to dry overnight before imaging with a microscope. Fluorescence intensity was quantified using image-processing software.

[2] = tested on: immortalized human meibomian gland cells; assay: 13-cis RA-induced late apoptosis/necrosis; assay type: cell-based
[3] = tested on: human meibomian gland epithelial cells; assay: Immunoblot of signaling pathways (Akt, FoxO1, ERK, JAK2/STAT5); assay type: cell-based
Description: The disclosure turns now to sodium dodecyl sulfate-polyacrylamide gel, electrophoresis, and immunoblots. Cells were directly lysed in Laemmli buffer supplemented with 1% protease inhibitor cocktail (Sigma-Aldrich) and 5% β-mercaptoethanol (Sigma-Aldrich). Lysates were heated at 95° C. for 10 minutes, separated by sodium dodecyl sulfate-polyacrylamide gel electrophoresis on 10% Tris-glycine precast gels, and transferred to polyvinylidene difluoride membranes. Rabbit or mouse antibodies used were specific for phosphorylated Akt (p-Akt), pan-Akt, p-FoxO1, FoxO1, p-JAK2, JAK2, and β-actin; for p-ERK, ERK-2, STAT5, and the precursor form of SREBP-1; and for p-STAT5. Membranes were blocked with 5% bovine serum albumin in Tris-buffered saline containing 0.01% polysorbate 20. All primary antibodies were diluted to 1:1000 in blocking buffer except for p-Akt (1:4000), p-ERK (1:2000), ERK-2 (1:4000), SREBP-1 (1:200), and β-actin (1:10 000). Horseradish peroxidase-conjugated secondary antibodies were goat anti-rabbit IgG and Fc-specific goat anti-mouse IgG diluted to 1:5000. Proteins were visualized with enhanced chemiluminescent substrate or with ultrasensitive chemiluminescent substrate. Densitometry was performed with image-processing software.
To determine whether IGF-1 promotes the phosphorylation of Akt in human meibomian gland epithelial cells, cells were cultured under proliferating or differentiating conditions and then exposed to IGF-1 for 15 minutes.
FIGS. 9a, 9b, and 9c illustrate the effects of insulin-like growth factor 1 (IGF-1) and growth hormone (GH) on signaling pathways in human meibomian gland epithelial cells. Cells were cultured in keratinocyte serum-free medium containing epidermal growth factor (EGF) and bovine pituitary extract (BPE) for 2 days and then keratinocyte serum-free medium alone overnight or were cultured in 10% fetal bovine serum (FBS) medium for 5 to 7 days and in 1% FBS medium overnight. Cells were then incubated with vehicle or a 10 μM concentration of LY294002 for 2 hours, followed by IGF-1 or GH treatment for 15 minutes. Cell lysates were evaluated on immunoblotting. […] These experiments were repeated at least 3 times with similar results.
To assess whether GH activates Akt, FoxO1, ERK-2, or its classic (i.e., JAK2 and STAT5) signaling pathways in human meibomian gland epithelial cells, cells were cultured in proliferating or differentiating media, and were exposed to a 10 nM concentration of GH for 15 minutes, and processed for immunoblot analyses. […]

[4] = tested on: immortalized human meibomian gland epithelial cells; assay: Cell proliferation, cells counted with a hemocytometer; assay type: cell-based; conditions: insulin
Description: as §1, §2
Regarding cell proliferation assay, the human meibomian gland epithelial cells and LNCaP cells were cultured in 12-well plates in designated media and then exposed to IGF-1 or GH for defined periods. At experimental termination, cells were trypsinized and counted with a hemocytometer.
FIGS. 10a, 10b, and 10c illustrate the influence of IGF-1 on the proliferation of human meibomian gland epithelial cells. Cells were cultured (100,000 cells/well in 12-well plates, 3 wells per group) in basal, proliferating, and/or differentiating media and treated with IGF-I for 2 to 6 days. […] P values are for post hoc comparison compared with the control value. […] ANOVA indicates analysis of variance; EGF-BPE, epidermal growth factor-bovine pituitary extract; KSFM, keratinocyte serum-free medium. All comparisons are with control value. Whiskers mark SEM. aP<0.05 compared with the control value, post hoc test.

[5] = one trial; cited from earlier work

In the case of `CC(=O)[C@H]1CC[C@H]2[C@@H]3CCC4=CC(=O)CC[C@]4(C)[C@H]3CC[C@]12C` [progesterone], the lipid accumulation [1] is reported as “marked lipid accumulation”.

In the case of `CC1=C(/C=C/C(C)=C/C=C/C(C)=C\C(=O)O)C(C)(C)CCC1` [13-cis RA], the “induction of late apoptosis/necrosis” value [2] is reported as “induced late apoptosis/necrosis”.

With `C[C@]12CCC(=O)C[C@@H]1CC[C@@H]1[C@@H]2CC[C@]2(C)[C@@H](O)CC[C@@H]12` [Dihydrotestosterone] the lipid accumulation [1] was “marked lipid accumulation” and the “phosphorylation of extracellular-signal-regulated kinases (ERKs)” value [3] was “increase the phosphorylation”.

For Insulin: insulin, an IGF-1 analogue, the “accumulation of neutral lipids” value ([1]; insulin) was “promotes meibomian gland epithelial cell accumulation of neutral lipids”, the cell proliferation [4] was “promotes meibomian gland epithelial cell proliferation” and the “activation of AKT signaling pathway” value ([3]; cells in serum-containing medium 5-7 days before treatment) was “dose-dependent manner”.

B1: figitumumab: human IgG2 monoclonal antibody that prevents the binding of IGF-1 to its receptor (antibody, chains of the INN, looked up)
heavy: EVQLLESGGGLVQPGGSLRLSCTASGFTFSSYAMNWVRQAPGKGLEWVSAISGSGGTTFYADSVKGRFTISRDNSRTTLYLQMNSLRAEDTAVYYCAKDLGWSDSYYYYYGMDVWGQGTTVTVSSASTKGPSVFPLAPCSRSTSESTAALGCLVKDYFPEPVTVSWNSGALTSGVHTFPAVLQSSGLYSLSSVVTVPSSNFGTQTYTCNVDHKPSNTKVDKTVERKCCVECPPCPAPPVAGPSVFLFPPKPKDTLMISRTPEVTCVVVDVSHEDPEVQFNWYVDGVEVHNAKTKPREEQFNSTFRVVSVLTVVHQDWLNGKEYKCKVSNKGLPAPIEKTISKTKGQPREPQVYTLPPSREEMTKNQVSLTCLVKGFYPSDIAVEWESNGQPENNYKTTPPMLDSDGSFFLYSKLTVDKSRWQQGNVFSCSVMHEALHNHYTQKSLSLSPG
light: DIQMTQFPSSLSASVGDRVTITCRASQGIRNDLGWYQQKPGKAPKRLIYAASRLHRGVPSRFSGSGSGTEFTLTISSLQPEDFATYYCLQHNSYPCSFGQGTKLEIKRTVAAPSVFIFPPSDEQLKSGTASVVCLLNNFYPREAKVQWKVDNALQSGNSQESVTEQDSKDSTYSLSSTLTLSKADYEKHKVYACEVTHQGLSSPVTKSFNRGEC
For B1, the “most common adverse effect” value [5] is listed as “DED”.
